In experiment [1] the test system is Staphylococcus aureus (S. aureus FDA 209P). In words: Agar plate dilution MIC, Staphylococcus aureus FDA 209P. In kind it is cell-based. To be noted: FDA209P, read-out: MIC S. aureus FDA 209P. The protocol: (§1) Antibacterial test was performed in substantial accordance with agar plate dilution method based on Standard method of The Japan Society of Chemotherapy to determine minimum inhibitory concentration (MIC) of the respective test compounds against Staphylococcus aureus (S. aureus FDA 209P) and vancomycin-resistant enterococci (E. faecalis NCTC-12201). Also determined was MIC80 on clinically separated strains (27 strains) of MRSA. The inoculated amount was 10^6 CFU/ml and flomoxef (FMOX) and vancomycin (VCM) were used as controls.

Experiment [2] concerns vancomycin-resistant enterococci (E. faecalis NCTC-12201). The experiment is described as follows: Agar plate dilution MIC, vancomycin-resistant enterococci E. faecalis NCTC-12201. In kind it is cell-based. To be noted: Enterococcus faecalis. On the procedure: as §1
[3] abbreviates: agar plate dilution, inoculum 10^6 CFU/ml.
Setting [4] is: NCTC12201, agar plate dilution, inoculum 10^6 CFU/ml, vancomycin-resistant, read-out: MIC E. faecalis NCTC-12201.

Converted amounts (≈) assume the structure as drawn. Structures can show the parent of a compound that is named as a salt. Where two headings read alike, the source gives them in different places.

Broadly, the MIC is the least concentration at which growth counts as inhibited. With `O=C(Cc1cccs1)N[C@@H]1C(=O)N2C(C(=O)O)=C(C=CSc3cc(=O)c4ccc(N5CCNCC5)cc4s3)CS[C@H]12` [compound 22, 7-[2-(2-thienyl)acetamide]-3-[2-(4-oxo-7-(piperazin-1-yl)-4H-1-benzothiopyran-2-yl)thiovinyl]-3-cephem-4-carboxylic acid.hydrochloride], the MIC in experiment [1] (setting [3]) was at most 0.006 µg/mL; in experiment [2] (setting [4]), 6.25 µg/mL.
The matching figures for `O=C(Cc1cccs1)N[C@@H]1C(=O)N2C(C(=O)O)=C(C=CSc3cc(=O)c4cccnc4s3)CS[C@H]12` [compound 30, 7-[2-(2-thienyl)acetamide]-3-[2-(4-oxo-4H-thiopyrano[2,3-b]pyridin-2-yl)thiovinyl]-3-cephem-4-carboxylic acid]: at most 0.006 µg/mL and 6.25 µg/mL (≈ 11.5 µM).
Taken in the same sequence, the figures for `O=C(Cc1cccs1)N[C@@H]1C(=O)N2C(C(=O)O)=C(C=CSc3cc(=O)c4ccc(F)cc4s3)CS[C@H]12` [compound 2, 7-[2-(2-thienyl)acetamide]-3-[2-(7-fluoro-4-oxo-4H-1-benzothiopyran-2-yl)thiovinyl]-3-cephem-4-carboxylic acid] were 0.05 µg/mL (≈ 0.0892 µM) and 0.78 µg/mL (≈ 1.39 µM).
The matching figures for `O=C(Cc1cccs1)N[C@@H]1C(=O)N2C(C(=O)O)=C(C=CSc3cc(=O)c4occc4s3)CS[C@H]12` [compound 9, 7-[2-(2-thienyl)acetamide]-3-[2-(7-oxo-7H-thiopyrano[3,2-b]furan-5-yl)thiovinyl]-3-cephem-4-carboxylic acid]: 0.025 µg/mL (≈ 0.0469 µM) and 3.13 µg/mL (≈ 5.88 µM).
Consider `O=C(Cc1cccs1)N[C@@H]1C(=O)N2C(C(=O)O)=C(C=CSc3cc(=O)c4ccc(O)cc4s3)CS[C@H]12` [compound 8, 7-[2-(2-thienyl)acetamide]-3-[2-(7-hydroxy-4-oxo-4H-1-benzothiopyran-2-yl)thiovinyl]-3-cephem-4-carboxylic acid], for which the values for the minimal inhibitory concentration (MIC) in experiment [1] (setting [3]) and in experiment [2] (setting [4]) were 0.2 µg/mL (≈ 0.358 µM) and 12.5 µg/mL (≈ 22.4 µM), respectively.
The matching figures for `O=C(Cc1cccs1)N[C@@H]1C(=O)N2C(C(=O)O)=C(C=CSc3cc(=O)c4ccc(N5CCCCC5)cc4s3)CS[C@H]12` [compound 19, 7-[2-(2-thienyl)acetamide]-3-[2-(4-oxo-7-piperidino-4H-1-benzothiopyran-2-yl)thiovinyl]-3-cephem-4-carboxylic acid]: 0.1 µg/mL (≈ 0.16 µM) and 3.13 µg/mL (≈ 5 µM).
With `Nc1nc(/C(=N/O)C(=O)N[C@@H]2C(=O)N3C(C(=O)O)=C(C=CSc4cc(=O)c5ccccc5s4)CS[C@H]23)cs1` [compound 11, sodium 7-[2-hydroxyimino-2-(2-aminothiazol-4-yl)acetamide]-3-[2-(4-oxo-4H-1-benzothiopyran-2-yl)thiovinyl]-3-cephem-4-carbonate], the MIC in experiment [1] (setting [3]) was found to be 0.1 µg/mL; in experiment [2] (setting [4]), 1.56 µg/mL.
The matching figures for `Nc1nc(/C(=N/O)C(=O)N[C@@H]2C(=O)N3C(C(=O)O)=C(C=CSc4cc(=O)c5occc5s4)CS[C@H]23)cs1` [compound 17, 7-[2-hydroxyimino-2-(2-aminothiazol-4-yl)acetamide]-3-[2-(7-oxo-7H-thiopyrano[3,2-b]furan-5-yl)thiovinyl]-3-cephem-4-carboxylic acid]: 0.39 µg/mL (≈ 0.675 µM) and 6.25 µg/mL (≈ 10.8 µM).
Turning to `Nc1nc(/C(=N/O)C(=O)N[C@@H]2C(=O)N3C(C(=O)O)=C(C=CSc4cc(=O)c5ccc(F)cc5s4)CS[C@H]23)cs1` [compound 18, 7-[2-hydroxyimino-2-(2-aminothiazol-4-yl)acetamide]-3-[2-(7-fluoro-4-oxo-4H-1-benzothiopyran-2-yl)thiovinyl]-3-cephem-4-carboxylic acid], the MIC in experiment [1] (setting [3]) worked out at 0.39 µg/mL (≈ 0.644 µM); in experiment [2] (setting [4]) it was 6.25 µg/mL (≈ 10.3 µM).
Taken in the same sequence, the figures for `N=C(N)SCc1ccc2c(=O)cc(SC=CC3=C(C(=O)O)N4C(=O)[C@@H](NC(=O)Cc5cccs5)[C@H]4SC3)sc2c1` [compound 28, 7-[2-(2-thienyl)acetamide]-3-[2-(7-isothiuroniummethyl-4-oxo-4H-1-benzothiopyran-2-yl)thiovinyl]-3-cephem-4-carboxylic acid.formate] were 0.0254 µg/mL and 6.25 µg/mL.
For `O=C(Cc1cccs1)N[C@@H]1C(=O)N2C(C(=O)O)=C(C=CSc3cc(=O)c4ccccc4s3)CS[C@H]12` [compound 1, 7-[2-(2-thienyl)acetamide]-3-[2-(4-oxo-4H-1-benzothiopyran-2-yl)thiovinyl]3-cephem-4-carboxylic acid], the figures for the minimum inhibitory concentration (MIC) in experiment [1] (setting [3]) and in experiment [2] (setting [4]) were 0.2 µg/mL (≈ 0.369 µM) and 3.13 µg/mL (≈ 5.77 µM), respectively.
Taken in the same sequence, the figures for `O=C(Cc1cccs1)N[C@@H]1C(=O)N2C(C(=O)O)=C(C=CSc3cc(=O)c4sccc4s3)CS[C@H]12` [compound 20, 7-[2-(2-thienyl)acetamide]-3-[2-(7-oxo-7H-thieno[3,2-b]thiopyran-5-yl)thiovinyl]-3-cephem-4-carboxylic acid] were 0.025 µg/mL (≈ 0.0456 µM) and 1.56 µg/mL (≈ 2.84 µM).
The matching figures for `O=C(Cc1cccs1)N[C@@H]1C(=O)N2C(C(=O)O)=C(C=CSc3cc(=O)c4scc([N+](=O)[O-])c4s3)CS[C@H]12` [compound 26, 7-[2-(2-thienyl)acetamide]-3-[2-(3-nitro-7-oxo-7H-thieno[3,2-b]thiopyran-5-yl)thiovinyl]-3-cephem-4-carboxylic acid]: 0.025 µg/mL (≈ 0.0421 µM) and 1.56 µg/mL (≈ 2.63 µM).
Take `O=C(Cc1cccs1)N[C@@H]1C(=O)N2C(C(=O)O)=C(C=CSc3cc(=O)c4ccc(N5CCOCC5)cc4s3)CS[C@H]12` [compound 10, 7-[2-(2-thienyl)acetamide]-3-[2-(7-morpholino-4-oxo-4H-1-benzothiopyran-2-yl)thiovinyl]-3-cephem-4-carboxylic acid]: the MIC in experiment [1] (setting [3]) was 0.05 µg/mL (≈ 0.0796 µM); in experiment [2] (setting [4]) it was 6.25 µg/mL (≈ 9.96 µM).
For the compound `O=C(Cc1cccs1)N[C@@H]1C(=O)N2C(C(=O)O)=C(C=CSc3cc(=O)c4c(C(F)(F)F)cccc4s3)CS[C@H]12` [compound 5, 7-[2-(2-thienyl)acetamide]-3-[2-(4-oxo-5-trifluoromethyl-4H-1-benzothiopyran-2-yl)thiovinyl]-3-cephem-4-carboxylic acid], the figures for the minimum inhibitory concentration (MIC) in experiment [1] (setting [3]) and in experiment [2] (setting [4]) were 0.05 µg/mL (≈ 0.0819 µM) and 1.56 µg/mL (≈ 2.55 µM), respectively.
As to `NCc1c(SC=CC2=C(C(=O)O)N3C(=O)[C@@H](NC(=O)Cc4cccs4)[C@H]3SC2)sc2sc(Cl)cc2c1=O` [compound 31, 7-[2-(2-thienyl)acetamide]-3-[2-(5-aminomethyl-2-chloro-4-oxo-4H-thieno[2,3-b]thiopyran-6-yl)thiovinyl]-3-cephem-4-carboxylic acid.trifluoroacetate], the MIC in experiment [1] (setting [3]) turned out to be 0.1 µg/mL; in experiment [2] (setting [4]), 3.13 µg/mL.
The matching figures for `O=C(Cc1cccs1)N[C@@H]1C(=O)N2C(C(=O)O)=C(C=CSc3cc(=O)c4cc(Cl)sc4s3)CS[C@H]12` [compound 21, 7-[2-(2-thienyl)acetamide]-3-[2-(2-chloro-4-oxo-4H-thieno[2,3-b]thiopyran-6-yl)thiovinyl]-3-cephem-4-carboxylic acid]: 0.025 µg/mL (≈ 0.0429 µM) and 1.56 µg/mL (≈ 2.68 µM).
Taken in the same sequence, the figures for `O=C(Cc1cccs1)N[C@@H]1C(=O)N2C(C(=O)O)=C(C=CSc3cc(=O)c4cc(F)c(F)c(F)c4s3)CS[C@H]12` [compound 7, 7-[2-(2-thienyl)acetamide]-3-[2-(6,7,8-trifluoro-4-oxo-4H-1-benzothiopyran-2-yl)thiovinyl]-3-cephem-4-carboxylic acid] were 0.025 µg/mL (≈ 0.0419 µM) and 0.78 µg/mL (≈ 1.31 µM).
Regarding `O=C(Cc1ccccc1)N[C@@H]1C(=O)N2C(C(=O)O)=C(C=CSc3cc(=O)c4ccccc4s3)CS[C@H]12` [compound 27, 7-(2-phenylacetamide)-3-[2-(4-oxo-4H-1-benzothiopyran-2-yl)thiovinyl]-3-cephem-4-carboxylic acid], the minimal inhibitory concentration (MIC) came to 0.025 µg/mL (≈ 0.0466 µM) in experiment [1] (setting [3]) and 3.13 µg/mL (≈ 5.83 µM) in experiment [2] (setting [4]).
Consider `CN[C@H](CC(C)C)C(=O)N[C@H]1C(=O)N[C@@H](CC(N)=O)C(=O)N[C@H]2C(=O)N[C@H]3C(=O)N[C@H](C(=O)N[C@H](C(=O)O)c4cc(O)cc(O)c4-c4cc3ccc4O)[C@H](O)c3ccc(c(Cl)c3)Oc3cc2cc(c3O[C@@H]2O[C@H](CO)[C@@H](O)[C@H](O)[C@H]2O[C@H]2C[C@](C)(N)[C@H](O)[C@H](C)O2)Oc2ccc(cc2Cl)[C@H]1O` [VCM, vancomycin, reference compound], for which the minimal inhibitory concentration (MIC) in experiment [1] was 0.78 µg/mL (≈ 0.538 µM); in experiment [2] (NCTC12201, read-out: MIC E. faecalis NCTC-12201), over 1000 µg/mL.
Regarding `O=C(Cc1cccs1)N[C@@H]1C(=O)N2C(C(=O)O)=C(C=CSc3cc(=O)c4nccnc4s3)CS[C@H]12` [compound 24, 7-[2-(2-thienyl)acetamide]-3-[2-(8-oxo-8H-thiopyrano[2,3-b]pyrazin-6-yl)thiovinyl]-3-cephem-4-carboxylic acid], the MIC is at most 0.006 µg/mL in experiment [1] (setting [3]) and 3.13 µg/mL (≈ 5.75 µM) in experiment [2] (setting [4]).
Take `O=C(Cc1cccs1)N[C@@H]1C(=O)N2C(C(=O)O)=C(C=CSc3sc4ccsc4c(=O)c3Br)CS[C@H]12` [compound 25, 7-[2-(2-thienyl)acetamide]-3-[2-(6-bromo-7-oxo-7H-thieno[3,2-b]thiopyran-5-yl)thiovinyl]-3-cephem-4-carboxylic acid]: the MIC was 0.013 µg/mL (≈ 0.0207 µM) in experiment [1] (setting [3]) and 0.78 µg/mL (≈ 1.24 µM) in experiment [2] (setting [4]).
With `Nc1nc(/C(=N/O)C(=O)N[C@@H]2C(=O)N3C(C(=O)O)=C(C=CSc4cc(=O)c5sccc5s4)CS[C@H]23)cs1` [compound 23, 7-[2-hydroxyimino-2-(2-aminothiazol-4-yl)acetamide]-3-[2-(7-oxo-7H-thieno[3,2-b]thiopyran-5-yl)thiovinyl]-3-cephem-4-carboxylic acid], the MIC in experiment [1] (setting [3]) turned out to be 0.1 µg/mL (≈ 0.168 µM); in experiment [2] (setting [4]), 3.13 µg/mL (≈ 5.27 µM).
In the case of `CO[C@@]1(NC(=O)CSC(F)F)C(=O)N2C(C(=O)O)=C(CSc3nnnn3CCO)CO[C@@H]21` [FMOX, flomoxef, reference compound], the minimum inhibitory concentration (MIC) in experiment [1] (setting [3]) is 0.2 µg/mL (≈ 0.403 µM); in experiment [2] (setting [4]), over 100 µg/mL.

Values taken from US6294527A, “Cephem compounds” (Zenyaku Kogyo Kabushiki Kaisha, priority 1996, dated 2001).
